# Measurements from ChEMBL document CHEMBL1201862, “PubChem BioAssay data set” (2004).
#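 Values below derive from 48-hour exposures of cells grown in 96-well plates, with endpoints linearly interpolated between the two concentrations bracketing the appropriate inhibition level. Abbreviation: GI50, concentration required for 50% inhibition of growth.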 Active and inactive are the calls of the source. No stated cut-off is given here; in the data, active = GI50 up to about 1.1 µM and inactive = higher.
# Legend:
# Experiment in all cases: NCI-60 cell line screen, 48 h
# A498 = tested on: A498
# EKVX = tested on: EKVX
# HCC 2998 = tested on: HCC 2998
# HCT-15 = tested on: HCT-15
# HOP-62 = tested on: HOP-62
# LOX IMVI = tested on: LOX IMVI
# MDA-MB-435 = tested on: MDA-MB-435
# MOLT-4 = tested on: MOLT-4
# NCI-H226 = tested on: NCI-H226
# NCI-H460 = tested on: NCI-H460
# OVCAR-3 = tested on: OVCAR-3
# RPMI-8226 = tested on: RPMI-8226
# SF-268 = tested on: SF-268
# SK-MEL-2 = tested on: SK-MEL-2
# SK-MEL-5 = tested on: SK-MEL-5
# SN12C = tested on: SN12C
# SW-620 = tested on: SW-620
# UACC-257 = tested on: UACC-257
# UACC-62 = tested on: UACC-62
# T47D = tested on: T47D
Structure (SMILES),GI50 (A498),GI50 (EKVX),GI50 (HCC 2998),GI50 (HCT-15) [µM],GI50 (HOP-62),GI50 (LOX IMVI),GI50 (MDA-MB-435),GI50 (MOLT-4),GI50 (NCI-H226),GI50 (NCI-H460),GI50 (OVCAR-3),GI50 (RPMI-8226),GI50 (SF-268),GI50 (SK-MEL-2),GI50 (SK-MEL-5),GI50 (SN12C),GI50 (SW-620),GI50 (UACC-257),GI50 (UACC-62),GI50 (T47D)
COc1ccc(C#Cn2nnc3ccccc32)cc1,> 100 µM (inactive),32.8 µM (inactive),26.2 µM (inactive),> 100,> 100 µM (inactive),> 100 µM (inactive),> 100 µM (inactive),71.6 µM (inactive),64.7 µM (inactive),> 100 µM (inactive),40.5 µM (inactive),26.1 µM (inactive),91.2 µM (inactive),92 µM (inactive),> 100 µM (inactive),> 100 µM (inactive),> 100 µM (inactive),50.4 µM (inactive),> 100 µM (inactive),
Cc1cc(C)c(/N=N/c2c(O)c(S(=O)(=O)O)cc3cc(S(=O)(=O)O)ccc23)cc1C,> 100 µM (inactive),> 100 µM (inactive),,> 100,> 100 µM (inactive),> 100 µM (inactive),> 100 µM (inactive),> 100 µM (inactive),> 100 µM (inactive),,> 100 µM (inactive),> 100 µM (inactive),> 100 µM (inactive),> 100 µM (inactive),> 100 µM (inactive),> 100 µM (inactive),> 100 µM (inactive),> 100 µM (inactive),> 100 µM (inactive),> 100 µM (inactive)
COC(NC(=O)Nc1ccc(C)cc1)(C(F)(F)F)C(F)(F)F,30.3 µM (inactive),,,,42.8 µM (inactive),3.08 µM (inactive),30.9 µM (inactive),9.08 µM (inactive),55.8 µM (inactive),32 µM (inactive),42.8 µM (inactive),24.6 µM (inactive),40.4 µM (inactive),,15.6 µM (inactive),28.1 µM (inactive),20.4 µM (inactive),,10.6 µM (inactive),18.7 µM (inactive)
CCCCOc1ccc(S(=O)(=O)N/C(N)=N/c2ccc(Cl)cc2)cc1,12.1 µM (inactive),10.3 µM (inactive),,14,20.2 µM (inactive),17.3 µM (inactive),,11.2 µM (inactive),19.9 µM (inactive),17.1 µM (inactive),14.9 µM (inactive),17.2 µM (inactive),14.3 µM (inactive),17.1 µM (inactive),18.9 µM (inactive),14.9 µM (inactive),15.5 µM (inactive),14.1 µM (inactive),14.1 µM (inactive),10.7 µM (inactive)
COC(=O)Cc1c([C@H]2[C@H](CC(=O)OC)c3ccccc3N2C(C)=O)[nH]c2ccccc12,> 100 µM (inactive),> 100 µM (inactive),,64.3,> 100 µM (inactive),> 100 µM (inactive),> 100 µM (inactive),54.8 µM (inactive),> 100 µM (inactive),96.8 µM (inactive),> 100 µM (inactive),33.6 µM (inactive),> 100 µM (inactive),> 100 µM (inactive),> 100 µM (inactive),> 100 µM (inactive),> 100 µM (inactive),> 100 µM (inactive),> 100 µM (inactive),> 100 µM (inactive)
N=C(CSS(=O)(=O)O)NC1CC2CCC1C2 (stereo not given),> 100 µM (inactive),,,> 100,95.7 µM (inactive),46 µM (inactive),95.5 µM (inactive),78.2 µM (inactive),> 100 µM (inactive),43.1 µM (inactive),> 100 µM (inactive),> 100 µM (inactive),> 100 µM (inactive),> 100 µM (inactive),> 100 µM (inactive),> 100 µM (inactive),> 100 µM (inactive),> 100 µM (inactive),> 100 µM (inactive),71.8 µM (inactive)
CC(C)(C)C(=O)CC(=O)C(F)(F)C(F)(F)C(F)(F)F,,15.2 µM (inactive),,14.3,18.3 µM (inactive),0.362 µM (active),15.5 µM (inactive),17.9 µM (inactive),27.8 µM (inactive),12.9 µM (inactive),14.1 µM (inactive),11.1 µM (inactive),17 µM (inactive),16.4 µM (inactive),7.19 µM (inactive),13.9 µM (inactive),18.8 µM (inactive),15.3 µM (inactive),15.3 µM (inactive),16 µM (inactive)
N=C1C(O)C2(I)c3ccccc3N3C(=N)C(O)C4c5ccccc5N1C4C32 (stereo not given),> 100 µM (inactive),> 100 µM (inactive),,32.3,38.3 µM (inactive),39 µM (inactive),20.4 µM (inactive),27.5 µM (inactive),,37.7 µM (inactive),32.1 µM (inactive),40.9 µM (inactive),> 100 µM (inactive),> 100 µM (inactive),30.8 µM (inactive),54.3 µM (inactive),52.8 µM (inactive),> 100 µM (inactive),> 100 µM (inactive),> 100 µM (inactive)
O=c1[nH]c(=O)n(COCCO)c2ccsc12,> 100 µM (inactive),> 100 µM (inactive),> 100 µM (inactive),> 100,> 100 µM (inactive),> 100 µM (inactive),> 100 µM (inactive),> 100 µM (inactive),> 100 µM (inactive),> 100 µM (inactive),> 100 µM (inactive),> 100 µM (inactive),> 100 µM (inactive),> 100 µM (inactive),> 100 µM (inactive),> 100 µM (inactive),> 100 µM (inactive),> 100 µM (inactive),,
Cc1cc2c(c(=O)o1)C1=S(SC(c3ccccc3)=C1)S2 (stereo not given),13.9 µM (inactive),,,> 100,20.8 µM (inactive),87.1 µM (inactive),,> 100 µM (inactive),,37.2 µM (inactive),24.9 µM (inactive),55.6 µM (inactive),45.7 µM (inactive),66.4 µM (inactive),47.4 µM (inactive),67.3 µM (inactive),> 100 µM (inactive),> 100 µM (inactive),39.2 µM (inactive),36.9 µM (inactive)
Cc1nnc(Nc2ccccc2)o1,,> 100 µM (inactive),,> 100,,> 100 µM (inactive),> 100 µM (inactive),> 100 µM (inactive),> 100 µM (inactive),,> 100 µM (inactive),> 100 µM (inactive),> 100 µM (inactive),70.8 µM (inactive),> 100 µM (inactive),> 100 µM (inactive),> 100 µM (inactive),> 100 µM (inactive),> 100 µM (inactive),> 100 µM (inactive)
NC1=CN2c3ccccc3N(CC(=O)N3CCOCC3)C2C=C1 (stereo not given),52.1 µM (inactive),> 100 µM (inactive),,> 100,> 100 µM (inactive),> 100 µM (inactive),> 100 µM (inactive),> 100 µM (inactive),> 100 µM (inactive),> 100 µM (inactive),,,> 100 µM (inactive),> 100 µM (inactive),> 100 µM (inactive),> 100 µM (inactive),> 100 µM (inactive),> 100 µM (inactive),> 100 µM (inactive),> 100 µM (inactive)
